The values below come from article PMC8003485, “Synthesis and Evaluation of Novel α-Aminoamides Containing Benzoheterocyclic Moiety for the Treatment of Pain” (Molecules, 2021).

The structures appear in SMILES notation. Where two headings read alike, the source gives them in different places.

One assay concerns the target T1, hNav1.7 (Homo sapiens, UniProt Q15858).
T1 construct: expressed in transfected cells; host or cells: HEK293
The experiment in a line: Whole-cell patch clamp assay for hNav1.7 inhibition (HEK293 cells stably expressing hNav1.7). In kind it is cell-based. As to conditions: for inhibition at 10 µM: HEK293, TTX-sensitive Nav1.7 current, mean ± SD. On the procedure:
The compounds were tested as hNav1.7 peak current inhibitors at room temperature using human embryonic kidney 293 cells stably expressing hNav1.7. The holding voltage was depolarized to 0 mV from −120 mV for 20 ms and restored to −75 mV for 8 s. After that, the membrane potential was recovered to −120 mV for 20 ms and then depolarized to 0 mV for another 20 ms. Finally, the voltage was renewed to −120 mV for 30 ms. The potential was applied every 20 s. The compounds were administered when the voltage of hNav1.7 recorded by the whole-cell patch clamp was stable. Every compound concentration was tested for 5 min, and all compounds were tested at several concentrations and with multiple cells.

Assay [1] deals with ICR (CD−1) male mice. In words: Formalin test (mouse, phase II paw licking). In kind it is in vivo. As to conditions: 10 mg/kg, i.p., phase II (15–30 min), mean ± SD, n = 8; for inhibition in vivo at 10 mg/kg: Mus musculus, ip, read-out: % Analgesia (formalin test). On the procedure:
The formalin test was carried out using the method described previously. During the formalin test, Institute of Cancer Research (ICR; CD−1) male mice (weight: 22–25 g) were acclimated to the environment for two days before the experiment with food and water available freely. The mice were housed under a 12 h/12 h light/dark cycle. The temperature and humidity of the room were kept at 25 ± 2 °C and 50–60%, respectively. The mice were divided into a vehicle group, a ralfinamide group, and test compound groups randomly, with eight mice in each group. All compounds were dissolved in saline and administered by intraperitoneal injection (n = 8) or intragastric administration by mouth (n = 8) at 10 mg/kg. The vehicle group was given the same volume of saline.
After administration, the mice were placed into polyvinyl chloride (PVC) observation chambers. Thirty minutes later, the mice were injected subcutaneously with 20 μL of 2.7% formalin solution into the surface of their right hind paw and were returned to their PVC chambers immediately to observe their behavior. The cumulative time each mouse licked its right hind paw during phase II (15–30 min) was recorded as its painful time in phase II. The analgesic effects of the compounds were presented as the mean ± standard deviation. The data were analyzed by SPSS using one-way analysis of variance followed by Dunnett’s test. The analgesic activity of the test compounds was calculated according to the following formula. %Analgesia=Average Time (Vehicle)−Average Time (Drug)/Average Time (Vehicle)× 100%

The test system of a further assay is ICR (CD-1) male mice. In words: Acetic acid-induced writhing test. It counts as in vivo. To be noted: 10 mg/kg, i.p.; writhes in 20 min; mean ± SD, n = 6. On the procedure:
The writhing test was performed according to a previously reported method. The ICR (CD-1) male mice (weight: 22–25 g) were treated as for the formalin test in the same environment. The mice were divided into a vehicle group, a ralfinamide group, and test compound groups randomly, with six mice in each group. All compounds were dissolved in saline and administered by intraperitoneal injection at 10 mg/kg. The vehicle group was given the same volume of saline. After administration, the mice were placed into PVC chambers. Thirty minutes later, the mice were injected with 1% acetic acid solution at 10 mL/kg by intraperitoneal injection and placed into the observation chambers immediately to record the number of writhes each mouse had in 20 min. The results were presented as the mean ± standard deviation. The analytical method was the same as that for the formalin test, and the analgesic activity of each compound was calculated by the following formula. %Analgesia=Average Number (Vehicle)−Average Number (Drug)/Average Number (Vehicle)× 100%

The subject of assay [2] is ICR (CD−1) male mice. The experiment in a line: Formalin test (mouse, phase II paw licking). It counts as in vivo. As to conditions: 20 mg/kg, dose-effect relationship assay.
A further assay has as its target T2, hNav1.8 (Homo sapiens, UniProt Q9Y5Y9).
T2 construct: expressed in transfected cells; host or cells: CHO
The experiment in a line: Whole-cell patch clamp assay for hNav1.8 inhibition (CHO cells stably expressing hNav1.8). In kind it is cell-based. As to conditions: Nav1.8 inactivated state Na+ currents. On the procedure: The whole-cell patch clamp assay assessing the hNav1.8 current was carried out at room temperature with Chinese hamster ovary cells stably expressing hNav1.8. The holding voltage of the membrane was transferred to 0 mV from −120 mV for 50 ms and then restored to −50 mV for 8 s. After that, the membrane potential was renewed to −120 mV for 20 ms, which was followed by a depolarization to 0 mV for 50 ms. Finally, the potential was recovered to the holding voltage of −120 mV for 30 ms. This process was performed every 20 s. The compounds were administered when the voltage of hNav1.8 was stable. Every compound concentration was tested for 5 min, and all compounds were tested at several concentrations and with multiple cells.
(The patch-clamp technique gives a direct electrical read-out from membranes.)

The target in another assay is T3, hNav1.5 (Homo sapiens, UniProt Q14524).
T3 construct: expressed in transfected cells; host or cells: HEK293
T3 sequence (Q14524 whole entry): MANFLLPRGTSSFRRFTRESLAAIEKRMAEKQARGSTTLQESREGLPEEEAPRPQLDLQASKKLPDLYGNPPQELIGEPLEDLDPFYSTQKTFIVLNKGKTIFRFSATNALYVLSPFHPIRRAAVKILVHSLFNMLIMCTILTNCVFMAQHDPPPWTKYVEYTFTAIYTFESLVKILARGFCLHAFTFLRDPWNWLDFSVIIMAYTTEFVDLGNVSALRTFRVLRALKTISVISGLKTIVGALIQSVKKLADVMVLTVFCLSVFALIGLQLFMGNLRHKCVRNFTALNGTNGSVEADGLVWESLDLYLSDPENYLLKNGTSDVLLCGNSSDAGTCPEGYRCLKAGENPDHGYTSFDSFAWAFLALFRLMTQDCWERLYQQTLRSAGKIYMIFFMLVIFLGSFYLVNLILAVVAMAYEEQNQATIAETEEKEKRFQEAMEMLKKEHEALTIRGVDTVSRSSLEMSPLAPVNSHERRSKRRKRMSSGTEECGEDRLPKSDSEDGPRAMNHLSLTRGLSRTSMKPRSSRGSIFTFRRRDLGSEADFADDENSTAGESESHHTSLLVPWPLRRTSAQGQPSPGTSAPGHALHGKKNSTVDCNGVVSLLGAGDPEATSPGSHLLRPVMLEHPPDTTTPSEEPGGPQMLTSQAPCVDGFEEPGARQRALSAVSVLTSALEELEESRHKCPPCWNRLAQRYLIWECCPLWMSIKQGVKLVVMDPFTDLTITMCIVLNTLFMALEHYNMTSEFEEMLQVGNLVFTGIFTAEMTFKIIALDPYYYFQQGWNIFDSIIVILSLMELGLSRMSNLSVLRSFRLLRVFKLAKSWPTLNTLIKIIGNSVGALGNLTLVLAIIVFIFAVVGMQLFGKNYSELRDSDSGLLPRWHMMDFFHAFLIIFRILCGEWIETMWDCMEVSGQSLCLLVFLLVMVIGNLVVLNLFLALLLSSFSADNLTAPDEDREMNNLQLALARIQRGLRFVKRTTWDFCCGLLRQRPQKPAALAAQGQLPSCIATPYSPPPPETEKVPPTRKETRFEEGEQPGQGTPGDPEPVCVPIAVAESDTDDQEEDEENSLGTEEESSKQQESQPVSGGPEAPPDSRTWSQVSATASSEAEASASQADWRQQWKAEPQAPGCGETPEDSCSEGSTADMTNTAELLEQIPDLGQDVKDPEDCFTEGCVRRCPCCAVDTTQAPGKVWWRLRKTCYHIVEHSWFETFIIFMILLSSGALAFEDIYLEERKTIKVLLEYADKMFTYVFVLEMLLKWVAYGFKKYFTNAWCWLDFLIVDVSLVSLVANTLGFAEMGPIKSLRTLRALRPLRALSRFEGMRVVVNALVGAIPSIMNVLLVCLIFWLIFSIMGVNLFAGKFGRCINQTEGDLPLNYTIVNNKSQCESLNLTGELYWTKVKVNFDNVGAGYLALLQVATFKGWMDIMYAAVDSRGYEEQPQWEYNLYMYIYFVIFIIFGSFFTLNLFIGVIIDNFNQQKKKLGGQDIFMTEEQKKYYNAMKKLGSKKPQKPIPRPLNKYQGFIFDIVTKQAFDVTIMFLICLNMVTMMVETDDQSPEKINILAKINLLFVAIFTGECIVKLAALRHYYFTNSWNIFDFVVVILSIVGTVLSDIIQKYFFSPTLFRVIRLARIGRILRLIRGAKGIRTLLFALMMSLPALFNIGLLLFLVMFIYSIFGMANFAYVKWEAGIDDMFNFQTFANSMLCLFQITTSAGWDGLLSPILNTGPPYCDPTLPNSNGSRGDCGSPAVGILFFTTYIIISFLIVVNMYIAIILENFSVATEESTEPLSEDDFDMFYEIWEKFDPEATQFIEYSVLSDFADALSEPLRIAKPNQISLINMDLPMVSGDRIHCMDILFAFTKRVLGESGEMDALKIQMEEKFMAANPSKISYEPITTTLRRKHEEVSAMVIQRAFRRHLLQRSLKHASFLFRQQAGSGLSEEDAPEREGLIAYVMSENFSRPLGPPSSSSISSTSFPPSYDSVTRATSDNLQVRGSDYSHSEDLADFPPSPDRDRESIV
The experiment in a line: Assay for hNav1.5 inhibition (HEK293 cells stably expressing hNav1.5). It counts as cell-based. As to conditions: HEK293; 10 µM; read-out: Inhibitory Effect to Nav1.5. Here is the method:
The inhibition of the compounds to hNav1.5 peak current was performed at room temperature using HEK293 cells that could express hNav1.5 stably. The holding voltage of the membrane was transferred to 0 mV from −120 mV for 50 ms and then restored to −50 mV for 8 s. After that, the membrane potential was renewed to −120 mV for 20 ms, followed by a depolarization to 0 mV for 50 ms. At last, the potential was recovered to the holding voltage −120 mV for 30 ms. This progress was performed every 20 s. The compounds were administrated when the voltage of hNav1.5 was stable. Every concentration was tested for 5 min and all compounds were tested at several concentrations and with multiple cells.

[3] abbreviates: read-out: Inhibitory Effect against Nav1.7, Activated State (TP−1).
[4] abbreviates: read-out: Inhibitory Effect against Nav1.7, Inactivated State (TP−2).

T1 sequence (Q15858 whole entry): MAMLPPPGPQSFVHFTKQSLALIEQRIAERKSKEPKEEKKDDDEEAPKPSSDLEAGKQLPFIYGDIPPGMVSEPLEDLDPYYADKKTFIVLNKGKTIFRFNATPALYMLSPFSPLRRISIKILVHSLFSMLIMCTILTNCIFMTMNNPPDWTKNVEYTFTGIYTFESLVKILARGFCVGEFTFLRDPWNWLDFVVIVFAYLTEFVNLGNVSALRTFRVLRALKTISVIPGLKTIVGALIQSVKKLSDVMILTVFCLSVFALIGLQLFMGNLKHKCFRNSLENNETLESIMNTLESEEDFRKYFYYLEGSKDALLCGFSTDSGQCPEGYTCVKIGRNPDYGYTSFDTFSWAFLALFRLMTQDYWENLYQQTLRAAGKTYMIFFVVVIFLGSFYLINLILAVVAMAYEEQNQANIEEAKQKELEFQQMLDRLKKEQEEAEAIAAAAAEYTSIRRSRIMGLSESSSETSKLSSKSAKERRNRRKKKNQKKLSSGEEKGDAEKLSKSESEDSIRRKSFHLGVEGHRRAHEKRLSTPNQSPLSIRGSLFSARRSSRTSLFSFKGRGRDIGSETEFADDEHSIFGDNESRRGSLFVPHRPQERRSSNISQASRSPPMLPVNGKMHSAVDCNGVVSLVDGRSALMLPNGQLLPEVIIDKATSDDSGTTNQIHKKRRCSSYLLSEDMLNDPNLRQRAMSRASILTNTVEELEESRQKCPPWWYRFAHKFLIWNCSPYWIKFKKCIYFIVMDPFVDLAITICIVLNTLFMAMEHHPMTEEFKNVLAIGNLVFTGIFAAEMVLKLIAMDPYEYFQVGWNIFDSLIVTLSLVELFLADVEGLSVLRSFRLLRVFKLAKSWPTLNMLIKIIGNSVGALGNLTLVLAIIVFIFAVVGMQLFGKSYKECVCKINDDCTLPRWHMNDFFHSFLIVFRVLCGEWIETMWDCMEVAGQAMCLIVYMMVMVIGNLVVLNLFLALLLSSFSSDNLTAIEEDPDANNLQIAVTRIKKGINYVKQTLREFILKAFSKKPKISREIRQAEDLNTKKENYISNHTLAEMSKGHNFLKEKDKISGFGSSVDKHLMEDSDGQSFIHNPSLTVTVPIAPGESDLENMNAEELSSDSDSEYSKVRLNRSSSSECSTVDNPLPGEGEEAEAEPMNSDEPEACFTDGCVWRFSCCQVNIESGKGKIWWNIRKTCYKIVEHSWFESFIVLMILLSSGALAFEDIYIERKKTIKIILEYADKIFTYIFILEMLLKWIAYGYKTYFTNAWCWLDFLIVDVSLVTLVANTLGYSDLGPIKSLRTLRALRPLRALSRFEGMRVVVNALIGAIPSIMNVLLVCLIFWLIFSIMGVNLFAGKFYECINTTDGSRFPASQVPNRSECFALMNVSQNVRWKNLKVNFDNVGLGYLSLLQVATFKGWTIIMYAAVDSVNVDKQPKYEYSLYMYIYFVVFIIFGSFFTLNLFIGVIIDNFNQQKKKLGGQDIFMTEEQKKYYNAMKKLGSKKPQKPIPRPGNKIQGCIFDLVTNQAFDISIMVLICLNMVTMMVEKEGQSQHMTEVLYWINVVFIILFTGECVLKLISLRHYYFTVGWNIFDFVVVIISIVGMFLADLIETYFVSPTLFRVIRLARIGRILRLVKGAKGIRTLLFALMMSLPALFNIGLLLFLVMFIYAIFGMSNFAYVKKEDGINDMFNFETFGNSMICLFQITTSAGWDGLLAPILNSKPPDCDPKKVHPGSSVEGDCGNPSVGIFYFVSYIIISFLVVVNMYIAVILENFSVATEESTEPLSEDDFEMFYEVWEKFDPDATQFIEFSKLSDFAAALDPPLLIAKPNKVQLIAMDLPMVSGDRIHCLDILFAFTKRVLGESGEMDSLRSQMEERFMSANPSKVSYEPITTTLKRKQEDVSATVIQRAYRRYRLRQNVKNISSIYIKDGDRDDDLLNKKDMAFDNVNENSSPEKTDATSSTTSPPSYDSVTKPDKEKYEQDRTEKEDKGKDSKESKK

As to `C[C@H](NCc1cccc(COc2ccc3cccnc3c2)c1)C(N)=O` [Compound 7e, (S)-2-((3-((Quinolin-7-yloxy)methyl)benzyl)amino)propanamide], the results for the inhibition at 10 µM at hNav1.7 (setting [3]) and at hNav1.7 (setting [4]) were 3.6 ± 3.3% and 47.7 ± 2.7%, respectively. Besides, the inhibition in vivo at 10 mg/kg in the assay on ICR (CD−1) male mice [1] worked out at 30.6 ± 14.7%.

Regarding `C[C@H](NCc1ccc(COc2cccc3cccnc23)cc1)C(N)=O` [Compound 7h, (S)-2-((4-((Quinolin-8-yloxy)methyl)benzyl)amino)propanamide], the inhibition at 10 µM on hNav1.7 (setting [3]) was 9.1 ± 4.3%; at hNav1.7 (setting [4]), 38.6 ± 4.7%. Moreover, the inhibition in vivo at 10 mg/kg in the assay on ICR (CD−1) male mice [1] is 57.2 ± 30.1%.

On to `C[C@H](NCc1cccc(COc2cccc3cccnc23)c1)C(N)=O` [Compound 7g, (S)-2-((3-((Quinolin-8-yloxy)methyl)benzyl)amino)propanamide], for which the inhibition at 10 µM at hNav1.7 (setting [3]) is 14.7 ± 0.2%; on hNav1.7 (setting [4]) it was 46 ± 0.1%. Also, in the assay with ICR (CD−1) male mice [1], the inhibition in vivo at 10 mg/kg turned out to be 35.6 ± 26.1%.

Regarding `C[C@H](NCc1cccc(COc2cccc3[nH]cnc23)c1)C(N)=O` [Compound 5a, (S)-2-((3-(((1H-Benzo[d]imidazol-4-yl)oxy)methyl)benzyl)amino)propanamide], the figures for the inhibition at 10 µM on hNav1.7 (setting [3]) and on hNav1.7 (setting [4]) were 5.1 ± 1.2% and 10.7 ± 0.4%, respectively. The inhibition in vivo at 10 mg/kg with ICR (CD−1) male mice [1] amounted to 51 ± 21.6%.

For `C[C@H](NCc1ccc(COc2ccc3[nH]cnc3c2)cc1)C(N)=O` [Compound 5d, (S)-2-((4-(((1H-Benzo[d]imidazol-5-yl)oxy)methyl)benzyl)amino)propanamide], the results for the inhibition at 10 µM on hNav1.7 (setting [3]) and at hNav1.7 (setting [4]) were 0.7 ± 0.8% and 1.5 ± 0.9%, respectively. Further, the inhibition in vivo at 10 mg/kg with ICR (CD−1) male mice [1] stood at 60.8 ± 32.2%.

In the case of `C[C@H](NCc1cccc(COc2cccc3ncccc23)c1)C(N)=O` [Compound 7a, (S)-2-((3-((Quinolin-5-yloxy)methyl)benzyl)amino)propanamide], the inhibition at 10 µM at hNav1.7 (setting [3]) worked out at 6.4 ± 4.9%; on hNav1.7 (setting [4]), 23.8 ± 3.6%. Besides, in the assay with ICR (CD−1) male mice [1], the inhibition in vivo at 10 mg/kg stood at 48 ± 27.8%.

On to `C[C@H](NCc1cccc(COc2ccc3[nH]cnc3c2)c1)C(N)=O` [Compound 5c, (S)-2-((3-(((1H-Benzo[d]imidazol-5-yl)oxy)methyl)benzyl)amino)propanamide], for which the inhibition at 10 µM at hNav1.7 (setting [3]) was 1.7 ± 0.3%; at hNav1.7 (setting [4]), 2.6 ± 0.8%. In the assay with ICR (CD−1) male mice [1], the inhibition in vivo at 10 mg/kg amounted to 48.8 ± 15.5%.

Turning to `C[C@H](NCc1ccc(COc2ccc3occc3c2)cc1)C(N)=O` [Compound 6d, (S)-2-((4-((Benzofuran-5-yloxy)methyl)benzyl)amino)propanamide], the inhibition at 10 µM turned out to be 10.9 ± 1.1% on hNav1.7 (setting [3]) and 31.8 ± 0.3% on hNav1.7 (setting [4]). The “% Analgesia (acetic acid-induced writhing test)” value in the assay on ICR (CD-1) male mice was 28.9 ± 8.5 %. Moreover, the inhibition in vivo at 10 mg/kg with ICR (CD−1) male mice [1] was 42.2 ± 16.3%.

`C[C@H](NCc1ccc(COc2cccc3ncccc23)cc1)C(N)=O` [Compound 7b, (S)-2-((4-((Quinolin-5-yloxy)methyl)benzyl)amino)propanamide]: the inhibition at 10 µM at hNav1.7 (setting [3]) worked out at 14.7 ± 5.4%; at hNav1.7 (setting [4]) it was 29.8 ± 0.6%. In addition, in the assay on ICR (CD−1) male mice [1], the inhibition in vivo at 10 mg/kg is 37.2 ± 25.3%.

Regarding `C[C@H](NCc1cccc(COc2ccc3ncccc3c2)c1)C(N)=O` [Compound 7c, (S)-2-((3-((Quinolin-6-yloxy)methyl)benzyl)amino)propanamide], the inhibition at 10 µM at hNav1.7 (setting [3]) was 8.6 ± 1.2%; on hNav1.7 (setting [4]), 30 ± 2.9%. Besides, the inhibition in vivo at 10 mg/kg in the assay with ICR (CD−1) male mice [1] amounted to 81.5 ± 14.8%.

Broadly, the IC50 is the midpoint of a concentration-inhibition curve. A lower IC50 goes with greater potency in that assay. In the case of `C[C@H](NCc1ccc(OCc2ccccc2F)cc1)C(N)=O` [Ralfinamide, reference compound], the inhibition at 10 µM on hNav1.7 (setting [3]) was determined as 8.1 ± 3.8%; on hNav1.7 (setting [4]), 57.7 ± 3.4%; at hNav1.5, 64.6 ± 3.2%. The IC50 was determined as 6.6 ± 1.6 µM at hNav1.7 (Table 4, TTX-sensitive inactivated Nav1.7 current) and 36.3 ± 8.9 µM against hNav1.8. For the same compound, in the assay on ICR (CD−1) male mice [2], the “Analgesic response (formalin test)” value worked out at 59.7%. For the same compound, the “% Analgesia (acetic acid-induced writhing test)” value in the assay with ICR (CD-1) male mice is 44.4 ± 15.5 ^☆ %. Further, the “% Analgesia (formalin test)” value with ICR (CD−1) male mice [1] is on record as 42.4 ± 23.3 %. In the assay on ICR (CD−1) male mice [1], the inhibition in vivo at 10 mg/kg turned out to be 42.4%.

Turning to `C[C@H](NCc1ccc(COc2ccc3ncccc3c2)cc1)C(N)=O` [Compound 7d, (S)-2-((4-((Quinolin-6-yloxy)methyl)benzyl)amino)propanamide], the inhibition at 10 µM on hNav1.7 (setting [3]) turned out to be 3.7 ± 0.5%; at hNav1.7 (setting [4]) it was 13.5 ± 0.4%. Besides, the inhibition in vivo at 10 mg/kg with ICR (CD−1) male mice [1] worked out at 20.9 ± 18.7%.

`C[C@H](NCc1ccc(COc2cccc3[nH]cnc23)cc1)C(N)=O` [Compound 5b, (S)-2-((4-(((1H-Benzo[d]imidazol-4-yl)oxy)methyl)benzyl)amino)propanamide]: the inhibition at 10 µM came to 3.7 ± 2% on hNav1.7 (setting [3]) and 1.4 ± 0.6% on hNav1.7 (setting [4]). The inhibition in vivo at 10 mg/kg with ICR (CD−1) male mice [1] turned out to be 27.4 ± 19.2%.

As for `C[C@H](NCc1ccc(COc2ccc3cccnc3c2)cc1)C(N)=O` [Compound 7f, (S)-2-((4-((Quinolin-7-yloxy)methyl)benzyl)amino)propanamide], the inhibition at 10 µM on hNav1.7 (setting [3]) is -1.8 ± 3.2%; at hNav1.7 (setting [4]), 31.6 ± 3.4%. The inhibition in vivo at 10 mg/kg in the assay with ICR (CD−1) male mice [1] turned out to be 15.9 ± 17.6%.

Turning to `C[C@H](NCc1ccc(COc2cccc3occc23)cc1)C(N)=O` [Compound 6b, (S)-2-((4-((Benzofuran-4-yloxy)methyl)benzyl)amino)propanamide], the results for the inhibition at 10 µM on hNav1.7 (setting [3]) and at hNav1.7 (setting [4]) were 11.8 ± 0.3% and 55.5 ± 2.5%, respectively. Besides, the “% Analgesia (acetic acid-induced writhing test)” value with ICR (CD-1) male mice is listed as 48.0 ± 5.8 ^☆ %. The inhibition in vivo at 10 mg/kg in the assay with ICR (CD−1) male mice [1] was found to be 48.4 ± 26.4%.

Turning to `C[C@H](NCc1cccc(COc2ccc3occc3c2)c1)C(N)=O` [Compound 6c, (S)-2-((3-((Benzofuran-5-yloxy)methyl)benzyl)amino)propanamide], the inhibition at 10 µM on hNav1.7 (setting [3]) amounted to 12.2 ± 0.7%; at hNav1.7 (setting [4]), 48.1 ± 4.2%. Moreover, in the assay on ICR (CD-1) male mice, the “% Analgesia (acetic acid-induced writhing test)” value was found to be 11.2 ± 7.6%. The inhibition in vivo at 10 mg/kg in the assay on ICR (CD−1) male mice [1] is 30.2 ± 19.8%.
